BindingDB's records for doi:10.1021/acs.jmedchem.9b01227 (Johann Wolfgang Goethe-University, 2019)

Target: Mitogen-activated protein kinase kinase kinase 20 (ZAK) (Homo sapiens) (UniProt Q9NYL2)
Test: Inhibition of ZAK (unknown origin) expressed in human HEK293 cells incubated for 2 hrs followed by NanoBRET NanoGlo Substrate addition by NanoBRET assay

Chain of Mitogen-activated protein kinase kinase kinase 20 (ZAK) (Homo sapiens) (Q9NYL2 whole entry, looked up): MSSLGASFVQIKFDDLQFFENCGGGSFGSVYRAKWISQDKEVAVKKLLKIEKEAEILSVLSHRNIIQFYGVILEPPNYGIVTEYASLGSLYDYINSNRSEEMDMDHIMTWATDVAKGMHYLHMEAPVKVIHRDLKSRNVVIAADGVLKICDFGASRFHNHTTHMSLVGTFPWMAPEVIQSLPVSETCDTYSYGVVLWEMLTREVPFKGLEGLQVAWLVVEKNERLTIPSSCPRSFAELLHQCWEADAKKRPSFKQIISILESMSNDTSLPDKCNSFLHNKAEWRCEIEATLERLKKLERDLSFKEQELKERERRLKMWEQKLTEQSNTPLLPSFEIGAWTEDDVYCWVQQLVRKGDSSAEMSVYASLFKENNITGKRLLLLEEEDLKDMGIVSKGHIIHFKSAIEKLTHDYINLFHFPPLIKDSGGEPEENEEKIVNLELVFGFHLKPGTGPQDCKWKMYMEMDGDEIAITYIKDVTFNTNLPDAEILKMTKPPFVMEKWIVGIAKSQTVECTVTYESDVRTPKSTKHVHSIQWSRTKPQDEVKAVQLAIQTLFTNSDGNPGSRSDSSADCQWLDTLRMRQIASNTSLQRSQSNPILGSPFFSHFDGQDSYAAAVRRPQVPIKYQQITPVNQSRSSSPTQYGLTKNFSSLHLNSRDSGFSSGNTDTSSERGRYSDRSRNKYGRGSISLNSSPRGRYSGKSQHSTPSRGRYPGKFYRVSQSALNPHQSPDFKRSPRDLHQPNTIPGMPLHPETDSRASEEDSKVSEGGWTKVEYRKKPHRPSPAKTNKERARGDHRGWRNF

| SMILES | IC50 [µM] |
| --- | --- |
| Nc1c(C(=O)NCc2ccc(C(=O)NCCCC3CCCCC3)cc2)cnn1-c1ccccc1 | 0.91 |
| O=C(NCCCC1CCCCC1)c1ccc(CNC(=O)c2cnn(-c3ccccc3)c2C(F)(F)F)cc1 | 5.8 |
